# In BindingDB's records for doi:10.7270/Q2805129 (Vanderbilt Screening Center For Gpcrs, Ion Channels and …, 2009):
# Target: T1, Muscarinic acetylcholine receptor M5 (Homo sapiens, UniProt P08912)
# T1 sequence (P08912 whole entry): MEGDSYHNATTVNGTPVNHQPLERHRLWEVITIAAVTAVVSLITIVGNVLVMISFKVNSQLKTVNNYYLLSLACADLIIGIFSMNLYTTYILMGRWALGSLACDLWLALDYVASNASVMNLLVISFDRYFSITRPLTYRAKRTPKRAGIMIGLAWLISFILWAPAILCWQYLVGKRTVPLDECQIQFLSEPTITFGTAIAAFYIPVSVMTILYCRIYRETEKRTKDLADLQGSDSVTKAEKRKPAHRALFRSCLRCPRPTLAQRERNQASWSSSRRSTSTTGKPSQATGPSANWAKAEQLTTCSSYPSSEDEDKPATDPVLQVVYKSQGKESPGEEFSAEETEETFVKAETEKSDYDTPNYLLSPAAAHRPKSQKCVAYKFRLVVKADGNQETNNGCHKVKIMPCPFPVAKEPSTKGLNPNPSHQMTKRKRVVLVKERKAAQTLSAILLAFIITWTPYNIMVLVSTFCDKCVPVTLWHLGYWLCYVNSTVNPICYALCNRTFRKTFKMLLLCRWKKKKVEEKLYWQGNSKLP
# Test: compound effect on ACh competition at M5, biochemical, [3H]N-methylscopolamine, acetylcholine (AID 2194)
compound,measurement,value
COc1ccc(CN2C(=O)C(=O)c3cc(OC(F)(F)F)ccc32)cc1 [VU0238429],Ki,159 nM
